{"source": "patent US5240961A", "about": "“Method of treating reduced insulin-like growth factor and bone loss associated with aging” (priority 1992, dated 1993)", "key": {"serum osteocalcin [1]": {"system": "serum osteocalcin", "experiment": "Comparative effects of L-carnitine, acetyl carnitine and γ-butyrobetaine on serum osteocalcin in adult mice", "format": "in vivo, mouse (BALB/c male)", "details": "for Osteocalcin: actual intake estimated about half", "protocol": "(§1) The present invention is further explained by the following examples which should not be construed by way of limiting the scope of the present invention. In the following examples, serum carnitine levels were determined by the method of R. Parvin et al., Anal. Biochem., vol. 79 (1979) pp. 190-201. Serum IGF-1 concentrations were measured by immunoradiometric assay, for example, by IRMA Kit available from Diagnostic Systems Laboratories, Inc., Webster, Texas. Serum osteocalcin levels were measured according to the method of Grunaberg et al., Meth. Enzymology, vol 107 (1984) 516, and which is embodied in an osteocalcin kit available from Biomedical Technologies, Inc., Stoughton, Mass. All mice used in the animal studies were BALB/c strain which is commercially available.\nTests were performed to compare the effects on serum osteocalcin of diet supplementation with L-carnitine, its precursor, γ-butyrobetaine (available from Aldrich Chemical Co.) and one of its metabolites, acetylcarnitine (available from Life Science Resources, Milwaukee, Wis. 53223). Twenty adult mice, i.e., three months of age, (BALB/c male mice) were divided into seven groups. Each of the groups was fed diets as indicated hereinbelow for twelve weeks. One group (n=3) was fed a diet with L-carnitine supplementation at a dose of 50 mg/kg of body weight each day, while the second group (n=3) was fed L-carnitine at a daily dose of about 100 mg/kg. The third group (n=2) was fed a diet with acetylcarnitine supplementation at a daily dose of 50 mg/kg, while the fourth group (n=3) was fed a daily dose of 100 mg/kg of this compound. The fifth group (n=2) was fed a daily dose of 50 mg/kg of γ-butyrobetaine supplementation,while the sixth group was fed a daily dose of 100 mg/kg of γ-butyrobetaine. The seventh group (n=4) was fed normal, unsupplemented feed (control). Mouse blood was sampled prior to beginning of the trial (pretreatment), at six weeks, and at the end of the trial (twelve weeks). The samples were evaluated for serum osteocalcin levels at six and twelve weeks. Total carnitine was determined at twelve weeks."}, "serum osteocalcin [2]": {"system": "serum osteocalcin", "experiment": "Osteocalcin response to L-carnitine in young mice", "format": "in vivo, mouse (BALB/c)", "protocol": "as §1\n(§2) Similar tests were performed on six young mice, i.e., 2 months 5 months of age. One group (n=3) was fed a diet with L-carnitine supplementation for three months, the other (n=3) was fed normal, unsupplemented feed (control). Each mouse in the test group was fed a daily oral dose of L-carnitine of about 50 mg/kg of body weight. Mouse blood was sampled prior to beginning of the trial (pretreatment) i.e., at two months of age, and at 5 months of age, and was evaluated for serum osteocalcin and carnitine levels."}, "serum carnitine [3]": {"system": "serum carnitine", "experiment": "Serum carnitine after oral L-carnitine in healthy adults over 60 (Example 4)", "format": "in vivo, human", "details": "individual subjects, 2 g/day oral, three months; for concentration: 131400 min", "protocol": "as §1\n(§3) Seven adults from Example 3 agreed to receive a daily dosage of L-carnitine of 2 g/day, self-administered orally, for three months. Doses were administered four times daily, and each dose consisted of two 250 mg tablets. Of the seven individuals, two individuals dropped out of the study due to unrelated illness; thus, five remained in the study to completion. The following were evaluated by pretreatment and posttreatment comparisons: serum carnitine and serum IGF-1 by known methods, and bone mineral contents by bone scan of thoracic region, i.e., thoracic vertebrae, on a NORLAND scanner."}, "[4]": {"experiment": "Serum carnitine after oral L-carnitine in healthy adults over 60 (Example 4)", "format": "in vivo, human", "details": "human, serum, po, 2 g/day, individual subjects, 2 g/day oral, three months", "protocol": "as §1, §3"}, "serum osteocalcin [5]": {"system": "serum osteocalcin", "experiment": "Osteocalcin response to L-carnitine in aged mice", "format": "in vivo, mouse (BALB/c)", "protocol": "as §1\nForty aged mice were separated into two groups. After an initial acclimatizing period of one week, one group was fed a diet with L-carnitine supplementation for six weeks and the other was fed normal, unsupplemented feed (control). […] The average daily food for each mouse was determined by weighing the food initially placed in the food bin and weighing the remaining food. […] Mouse blood was sampled prior to beginning of the trial (pretreatment), at the end of three weeks, and at six weeks (posttreatment), and was evaluated for serum osteocalcin and carnitine levels."}, "serum carnitine [6]": {"system": "serum carnitine", "experiment": "Serum carnitine after oral L-carnitine, double-blind study in patients over 60 (Example 5)", "format": "in vivo, human", "details": "individual subjects 010-019, 2 g/day oral", "protocol": "as §1\n(§4) Nineteen patients (over age 60) were enrolled in a preliminary double-blindstudy to establish the effect of oral L-carnitine treatment on serum IGF-1 and osteocalcin levels. Baseline, i.e., pretreatment, levels of serum IGF-1, osteocalcin and carnitine were measured by known methods. The patients were divided into two groups, control (n=9; subjects 001-009 in Table 5 below) and treatment (n=10; subjects 010-019 in Table 5 below). The treatment group received a daily dosage of 2 g of L-carnitine orally, self-administered, in four separate doses of two 250 mg tablets taken four times per day, for twelve weeks. The control group were given placebo, e.g., simple sugar. Serum samples were drawn every four weeks, and serum carnitine, IGF-1 and osteocalcin were determined."}, "[7]": {"experiment": "Serum carnitine after oral L-carnitine, double-blind study in patients over 60 (Example 5)", "format": "in vivo, human", "details": "human, serum, po, 2 g/day", "protocol": "as §1, §4"}, "[8]": {"experiment": "Serum carnitine levels in young mice fed L-carnitine", "format": "in vivo, mouse (BALB/c)", "details": "mouse, po, 50 mg/kg/day, 50 mg/kg/day oral", "protocol": "as §1, §2"}, "serum osteocalcin [9]": {"system": "serum osteocalcin", "experiment": "Serum osteocalcin after oral L-carnitine, double-blind study in patients over 60 (Example 5)", "format": "in vivo, human", "details": "for Osteocalcin: individual subjects 010-019, 2 g/day oral; for average serum osteocalcin: treatment group average", "protocol": "as §1, §4"}, "[10]": {"details": "read-out: Carnitine, Free, posttreatment"}, "[11]": {"details": "read-out: Carnitine, Total, posttreatment"}}, "note": "“And” between values parts separate entries of the source, which are not always exact repeats. Identical values can stand only once. “Also recorded” adds a separate entry of the source. Like-named read-outs stand apart in the source and are kept apart here."}
{"molecule": "C[N+](C)(C)C[C@H](O)CC(=O)[O-]", "note": "[L-carnitine]", "values": [{"measurement": "significance of difference in osteocalcin vs control (p, student's t test)", "setting": "serum osteocalcin [1]; 50 mg/kg/day", "result": "< 0.01"}, {"measurement": "Osteocalcin", "setting": "serum osteocalcin [1]; 50 mg/kg/day, 6 wks", "result": "151 ng/mL and 151 ± 4 ng/mL"}, {"measurement": "Osteocalcin", "setting": "serum osteocalcin [1]; 50 mg/kg/day, 12 wks", "result": 153, "unit": "ng/mL"}, {"measurement": "significance of difference in osteocalcin vs control (p, student's t test)", "setting": "serum osteocalcin [1]; 100 mg/kg/day", "result": "< 0.05"}, {"measurement": "Osteocalcin", "setting": "serum osteocalcin [1]; 100 mg/kg/day, 6 wks", "result": "199 ng/mL and 199 ± 7 ng/mL"}, {"measurement": "Osteocalcin", "setting": "serum osteocalcin [1]; 100 mg/kg/day, 12 wks", "result": 115, "unit": "ng/mL"}, {"measurement": "effect on osteocalcin", "setting": "serum osteocalcin [1]; adult mice, 50 and 100 mg/kg/day", "result": "stimulate osteocalcin production in adult mice; also recorded: maintained osteocalcin blood levels"}, {"measurement": "Osteocalcin", "setting": "serum osteocalcin [2]; 5 mos., 50 mg/kg/day oral for three months", "result": 256, "unit": "ng/mL"}, {"measurement": "osteocalcin vs control", "setting": "serum osteocalcin [2]; five months, 50 mg/kg/day", "result": "maintained a higher level of osteocalcin at five months"}, {"measurement": "concentration", "setting": "serum carnitine [3]; [10]", "result": "57 µM and 55.4 µM and 38.6 µM and 44.8 µM"}, {"measurement": "concentration", "setting": "serum carnitine [3]; [11]", "result": "70.7 µM and 68.9 µM and 54.7 µM and 73.4 µM"}, {"measurement": "Carnitine E/F, posttreatment", "setting": "serum carnitine [3]; ratio esterified/free", "result": "0.32 and 0.24 and 0.42 and 0.64"}, {"measurement": "concentration at 2190 h", "setting": "[4]; [10]", "result": 77.2, "unit": "µM"}, {"measurement": "concentration at 2190 h", "setting": "[4]; [11]", "result": 102, "unit": "µM"}, {"measurement": "Osteocalcin", "setting": "serum osteocalcin [5]; aged mice (18 months), 50 mg/kg/day oral in feed, six weeks", "result": "29.6 ± 3.6", "unit": "ng/mL"}, {"measurement": "significance of difference in osteocalcin, treated vs control (p, student's t test)", "setting": "serum osteocalcin [5]; aged mice, 50 mg/kg/day", "result": "≤ 0.05"}, {"measurement": "concentration", "setting": "serum carnitine [6]; 4 weeks, 40320 min, read-out: Serum carnitine, Free", "result": "54.4 µM and 61.6 µM and 36.6 µM and 66.6 µM and 67.4 µM and 52 µM and 67.2 µM and 40.4 µM and 61.2 µM and 85 µM"}, {"measurement": "concentration", "setting": "serum carnitine [6]; 4 weeks, 40320 min, read-out: Serum carnitine, Total", "result": "71.6 µM and 72.5 µM and 52.4 µM and 80.3 µM and 120 µM and 67 µM and 84.4 µM and 54.3 µM and 73 µM and 108 µM"}, {"measurement": "concentration", "setting": "serum carnitine [6]; 8 weeks, 80640 min, read-out: Serum carnitine, Free", "result": "58.6 µM and 52.6 µM and 65.2 µM and 74.6 µM and 57 µM and 67.4 µM and 39.4 µM and 61.2 µM"}, {"measurement": "concentration", "setting": "serum carnitine [6]; 8 weeks, 80640 min, read-out: Serum carnitine, Total", "result": "76.6 µM and 64.8 µM and 72.5 µM and 91.7 µM and 67.9 µM and 83.4 µM and 51.5 µM and 83.9 µM"}, {"measurement": "concentration", "setting": "serum carnitine [6]; 12 weeks, 120960 min, read-out: Serum carnitine, Free", "result": "61 µM and 49.6 µM and 70 µM and 55.8 µM and 69.6 µM"}, {"measurement": "concentration", "setting": "serum carnitine [6]; 12 weeks, 120960 min, read-out: Serum carnitine, Total", "result": "79.3 µM and 62 µM and 75.7 µM and 70.2 µM and 94.4 µM"}, {"measurement": "concentration at 1344 h", "setting": "[7]; individual subjects 010-019, 2 g/day oral, 8 weeks, read-out: Serum carnitine, Free", "result": 65.4, "unit": "µM"}, {"measurement": "concentration at 1344 h", "setting": "[7]; individual subjects 010-019, 2 g/day oral, 8 weeks, read-out: Serum carnitine, Total", "result": 88, "unit": "µM"}, {"measurement": "concentration at 2016 h", "setting": "[7]; individual subjects 010-019, 2 g/day oral, 12 weeks, read-out: Serum carnitine, Free", "result": 72.6, "unit": "µM"}, {"measurement": "concentration at 2016 h", "setting": "[7]; individual subjects 010-019, 2 g/day oral, 12 weeks, read-out: Serum carnitine, Total", "result": 101, "unit": "µM"}, {"measurement": "concentration at 1344 h", "setting": "[7]; treatment group average, eight weeks, read-out: average total carnitine", "result": 75.6, "unit": "µM"}, {"measurement": "concentration at 672 h", "setting": "[7]; treatment group average, four weeks, read-out: average total carnitine", "result": 78.4, "unit": "µM"}, {"measurement": "concentration at 2016 h", "setting": "[7]; treatment group average, twelve weeks, read-out: average total carnitine", "result": 81.5, "unit": "µM"}, {"measurement": "concentration at 2190 h", "setting": "[8]; read-out: Serum Carnitine, Free", "result": 60.2, "unit": "µM"}, {"measurement": "concentration at 2190 h", "setting": "[8]; read-out: Serum Carnitine, Total", "result": 84.2, "unit": "µM"}, {"measurement": "osteocalcin vs control, significance", "setting": "serum osteocalcin [9]; 4, 8 and 12 weeks", "result": "just below significance"}, {"measurement": "Osteocalcin", "setting": "serum osteocalcin [9]; 4 weeks", "result": "11.8 ng/mL and 13.6 ng/mL and 7.4 ng/mL and 11.5 ng/mL and 7.9 ng/mL and 10.4 ng/mL and 11.6 ng/mL and 3.6 ng/mL and 5.9 ng/mL"}, {"measurement": "Osteocalcin", "setting": "serum osteocalcin [9]; 8 weeks", "result": "11.9 ng/mL and 10.2 ng/mL and 7.0 ng/mL and 10.8 ng/mL and 9.0 ng/mL and 11.0 ng/mL and 2.4 ng/mL and 4.9 ng/mL"}, {"measurement": "Osteocalcin", "setting": "serum osteocalcin [9]; 12 weeks", "result": "9.3 ng/mL and 11.8 ng/mL and 8.7 ng/mL and 7.0 ng/mL and 9.1 ng/mL and 11.4 ng/mL and 6.5 ng/mL"}, {"measurement": "average serum osteocalcin", "setting": "serum osteocalcin [9]; eight weeks", "result": 8.4, "unit": "ng/mL"}, {"measurement": "average serum osteocalcin", "setting": "serum osteocalcin [9]; four weeks", "result": 9.2, "unit": "ng/mL"}, {"measurement": "average serum osteocalcin", "setting": "serum osteocalcin [9]; twelve weeks", "result": 9.1, "unit": "ng/mL"}]}
